Results: article PMC12278645, “Design, synthesis, and antitumor activity of novel thioheterocyclic nucleoside derivatives by suppressing the c-MYC pathway” (Acta Pharmaceutica Sinica. B, 2025)

Tests used:
[1] = tested on: DU145 (human prostate cancer); assay: CCK-8 anti-proliferation assay, DU145; assay type: cell-based; conditions: Homo sapiens, DU-145; CCK-8, 48 h, mean ± SD
Procedure: (§1) To evaluate their spectrum of anti-proliferative activity, further CCK-8 assays were carried out with the selected compounds (5a/5b, 8a/8b, 33a/33b, and 36a/36b) on MCF-7 (human breast cancer), A375 (human malignant melanoma), DU145 (human prostate cancer), and CT26 (mouse colon cancer) cell lines. The selected compounds had moderate to potent antitumor activity on the four cell lines, indicating their broad spectrum of antitumor activity (Table 5).
(§2) MCF-7, A375, and HeLa cells were cultured in DMEM, HCT116 cells were cultured in McCoy's 5A medium, and DU145 and CT26 were cultured in RPMI 1640 with 10% FBS, 1% penicillin-streptomycin solution (10,000 U/mL penicillin and 10,000 μg/mL streptomycin) at 37 °C under 5% CO2. The cells were seeded in 96-well plates (4 × 10^3 cells/well) overnight and then treated with various concentrations (1–50 μmol/L) of the compound. After 48 h, the cell viability was measured by CCK-8 assay. The absorbance of each well was measured using a microplate reader (Multiskan FC, Thermo Fisher Scientific, Massachusetts, USA) at 450 nm wavelength. Assays were performed in triplicate. Compound concentrations that inhibited cell growth by 50% (IC50) were calculated from the dose–response curves of each cell line. Data are mean ± SD values from three independent experiments.

HCT116 cells [2] = assay: EdU assay; assay type: cell-based, human; conditions: 48 h
Procedure: HCT116 cells were seeded in 96-well plates (4 × 10^4 cells/well) overnight and then the cells were treated with various concentrations of compound 33a or 36b. After 48 h, the experiment operation process was performed according to the manufacturer's instructions. Images were obtained with a Leica DMIL fluorescence microscope (Leica Microsystems, Wetzlar, Germany).

HCT116 cells [3] = assay: Cell apoptosis (Annexin V-FITC/PI, flow cytometry); assay type: cell-based, human; conditions: 48 h
Procedure: HCT116 cells were seeded in 6-well plates (4 × 10^5 cells/well). The following day, defined concentrations of compound 33a or 36b were added to the wells for 48 h at 37 °C with 5% CO2. The cells were collected and stained with Annexin V-FITC and PI for 15 min at room temperature. Apoptotic cells were analyzed with flow cytometry (BD Bioscience).

[4] = tested on: CT26 (mouse colon cancer); assay: CCK-8 anti-proliferation assay, CT26; assay type: cell-based; conditions: Mus musculus, CT26; CCK-8, 48 h, mean ± SD
Procedure: as §1, §2

HCT116 cells [5] = assay: Transwell invasion assay; assay type: cell-based, human; conditions: 24 h
Procedure: A transwell chamber (24-well) (Corning, New York, USA) was coated with Matrigel (BD Biosciences, New Jersey, USA), and 1 × 10^5 cells per well were seeded in the upper chamber in serum-free medium and treated with defined doses of compound 33a or 36b. The complete medium was placed in the lower chamber. After 24 h, the cells penetrating through the pores were stained with 0.1% crystal violet solution and observed with a Leica DMIL fluorescence microscope (Leica Microsystems).

HCT116 cells [6] = assay: Autophagy (Western blot of P62, LC3, Beclin1; TEM; MDC staining); assay type: cell-based, human; conditions: 48 h
Procedure: Whole protein was extracted and separated by polyacrylamide gel electrophoresis (SDS-PAGE) and transferred onto nitrocellulose membranes. Membranes were blotted with CDK1, Cyclin B1, Caspase-3, BAX, BCL-2, PARP-1, γ-H2AX, P53, ATF4, CHOP, PERK, ATP6, LC3, Beclin1, P62, β-Catenin, c-MYC, MAX, UPP1, GAPDH, β-Actin, and β-Tubulin primary antibodies. Protein band analyses were performed with ImageJ software and protein expression levels were presented as a percentage difference compared to control.

HCT116 cells [7] = assay: Colony formation; assay type: cell-based, human; conditions: 48 h treatment, then 14 days
Procedure: HCT116 cells were seeded in 6-well plates (1.5 × 10^3 cells/well). Various concentrations of compound 33a or 36b were added to the wells for 48 h. The culture medium was changed every 72 h, at the end of 14 days, cells were fixed with methanol for 30 min and stained with 0.1% crystal violet staining solution for 30 min at room temperature, then washed three times in PBS and allowed to dry. Photographs were then taken.

HCT116 cells [8] = assay: Cell cycle assay (PI, flow cytometry); assay type: cell-based, human; conditions: 48 h
Procedure: Cells were seeded in 6-well plates (5 × 10^5 cells/well). The following day, defined concentrations of compound 33a or 36b were added to the wells for 48 h at 37 °C with 5% CO2. The cells were collected and fixed in ice-cold 70% alcohol overnight. Then the cells were stained in propidium iodide (PI) dye for 15 min in the dark and the cell DNA contents were analyzed via flow cytometry (Becton, Dickinson Company, New Jersey, USA).

[9] = tested on: A375 (human malignant melanoma); assay: CCK-8 anti-proliferation assay, A375; assay type: cell-based; conditions: Homo sapiens, A-375; CCK-8, 48 h, mean ± SD
Procedure: as §1, §2

HCT116 cells [10] = assay: Wound healing assay; assay type: cell-based, human; conditions: 24 h
Procedure: HCT116 cells were seeded in 6-well plates (6 × 10^5 cells/well) to full confluence and then an artificial wound was created in the cell monolayer using a 200 μl pipette tip. Images of wound closure were captured at 0 and 24 h using a Leica DMIL fluorescence microscope (Leica Microsystems). The percentage of wound closure was calculated using Image J software.

HCT116 cells [11] = assay: RNA-sequencing analysis; assay type: cell-based, human; conditions: 48 h
Procedure: Total RNA was isolated from the HCT11 cells using Trizol (Invitrogen Life Technologies Corporation, Carlsbad, USA), cDNA synthesis followed by adaptor ligation and enrichment according to the instructions. The purified library products were evaluated using Illumina NovaSeq 6000 (paired-end 150 bp).

Compound | IC50 [1] | EdU-positive cells (HCT116 cells [2]) | apoptosis (HCT116 cells [3]) | IC50 [4] | invasion (HCT116 cells [5]) | autophagy (HCT116 cells [6]) | colony formation (HCT116 cells [7]) | G2/M cells (HCT116 cells [8]) | IC50 [9] | wound healing (HCT116 cells [10]) | genes significantly downregulated (HCT116 cells [11]; 0.8 μmol/L) | genes significantly upregulated (HCT116 cells [11]; 0.8 μmol/Lol/L)
CCCSc1nc(F)nc2c1ncn2[C@@]1(C(=O)OCC)CSC[C@@H]1O (relative stereo) [36b] | 6.59 ± 1.36 µM | significantly fewer EdU-positive cells than in the control group | induced apoptosis in a dose-dependent manner | 0.85 ± 0.09 µM | distinctly reduced the number of HCT116 cells passing through the matrix membrane | could up-regulate the protein levels of P62 but showed no obvious effect on LC3-II and Beclin1 | reduce the colony formation number in a dose-dependent manner | increased the percentage of G2/M cells in a dose-dependent manner | 1.14 ± 0.17 µM | significantly delay the wound healing ability of HCT116 cells in a dose-dependent manner |  | 
CCOC(=O)[C@]1(n2cnc3c(N4CCCCC4)nc(F)nc32)CSC[C@H]1O (racemic) [33a] | 21.1 ± 1.21 µM | significantly fewer EdU-positive cells than in the control group | induced apoptosis in a dose-dependent manner | 0.57 ± 0.13 µM | distinctly reduced the number of HCT116 cells passing through the matrix membrane | could inhibit autophagy in HCT116 | reduce the colony formation number in a dose-dependent manner | increased the percentage of G2/M cells in a dose-dependent manner | 2.34 ± 0.12 µM | significantly delay the wound healing ability of HCT116 cells in a dose-dependent manner | 221 | 265
